This is an account of results in patent US20240270762A1, “PENICILLIN-BINDING PROTEIN INHIBITORS” (priority 2021, published 2024).

For assay [1], the target named is T1, PBP1a from Acinetobacter baumannii (ATCC 19606) (Acinetobacter baumannii, UniProt A0ABX6CK30).
T1 sequence (A0ABX6CK30 1-851): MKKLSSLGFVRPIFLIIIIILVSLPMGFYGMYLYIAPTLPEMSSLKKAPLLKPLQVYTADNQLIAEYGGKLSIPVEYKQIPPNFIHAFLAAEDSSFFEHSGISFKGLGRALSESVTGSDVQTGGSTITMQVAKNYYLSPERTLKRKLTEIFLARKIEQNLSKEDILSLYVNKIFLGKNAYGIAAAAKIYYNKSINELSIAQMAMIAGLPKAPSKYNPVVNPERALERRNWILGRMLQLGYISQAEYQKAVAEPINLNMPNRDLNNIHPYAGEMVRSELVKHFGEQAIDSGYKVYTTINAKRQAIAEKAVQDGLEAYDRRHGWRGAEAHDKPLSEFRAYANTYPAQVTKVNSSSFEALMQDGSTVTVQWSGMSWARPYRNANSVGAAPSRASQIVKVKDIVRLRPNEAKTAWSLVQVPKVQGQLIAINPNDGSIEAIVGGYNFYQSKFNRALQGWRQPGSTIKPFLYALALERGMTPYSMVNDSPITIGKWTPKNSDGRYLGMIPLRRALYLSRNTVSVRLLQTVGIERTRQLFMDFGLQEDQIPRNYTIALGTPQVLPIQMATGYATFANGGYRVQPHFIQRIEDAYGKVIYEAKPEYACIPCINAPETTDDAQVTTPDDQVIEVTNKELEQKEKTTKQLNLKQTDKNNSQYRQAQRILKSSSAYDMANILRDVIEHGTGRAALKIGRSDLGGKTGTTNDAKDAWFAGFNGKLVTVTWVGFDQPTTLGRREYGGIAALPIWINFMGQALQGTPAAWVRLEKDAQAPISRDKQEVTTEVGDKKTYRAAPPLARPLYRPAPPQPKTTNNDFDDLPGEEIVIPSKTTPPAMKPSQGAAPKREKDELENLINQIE
Kind of assay: Bocillin-FL fluorescence polarization competition binding, A. baumannii PBP1a. The settings on record: fluorescence polarization competition binding assay using Bocillin-FL; read-out: A. baumannii PBP1a Potency. Put shortly: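 Purified PBP was preincubated with inhibitor (E. coli PBP3 1.5 μM, 30 min; P. aeruginosa PBP3 0.75 μM, A. baumannii PBP3 0.2 μM and PBP1a 1 μM, 15 min), then Bocillin-FL (0.1 μM; 0.05 μM for PBP1a) added and FP read up to 60 min. EC50 = 50% loss of bound probe.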
In general terms: Polarisation of emitted light reports the rotation of a fluorescent probe.

Another assay concerns the target A. baumannii PBP2 (Acinetobacter baumannii, UniProt D0C8Z9). Kind of assay: Bocillin-FL competition binding via gel filtration, A. baumannii PBP2. Put shortly:
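Competitive equilibrium binding with Bocillin-FL reporter: PBP pre-incubated with inhibitor dilutions, Bocillin-FL added, 15 min incubation. Labelled enzyme isolated by size-exclusion spin plates, fluorescence measured; EC50 obtained by fitting bound fraction against inhibitor concentration with a Hill-coefficient model.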
On the technique in general: Size exclusion chromatography separates by hydrodynamic size, large species first.

For a further assay, the system named is P. aeruginosa CDC-0054. Kind of assay: microbe, parasite or virus in culture. The following applies: Pseudomonas aeruginosa, CDC0054, read-out: Minimum inhibitory concentration, P. aeruginosa CDC-0054. The format is cell-based.
Another assay has as its system A. baumannii CDC-0036. Kind of assay: microbe, parasite or virus in culture. The following applies: Acinetobacter baumannii. Format: cell-based.
Where [2] appears, read: CDC0036, read-out: MIC, A. baumannii CDC-0036.

Values after ≈ are worked out from the molar mass of the structure shown. Where two headings read alike, the source gives them in different places. Some results are limits rather than exact numbers.

A. baumannii PBP2, sequence (D0C8Z9 whole entry): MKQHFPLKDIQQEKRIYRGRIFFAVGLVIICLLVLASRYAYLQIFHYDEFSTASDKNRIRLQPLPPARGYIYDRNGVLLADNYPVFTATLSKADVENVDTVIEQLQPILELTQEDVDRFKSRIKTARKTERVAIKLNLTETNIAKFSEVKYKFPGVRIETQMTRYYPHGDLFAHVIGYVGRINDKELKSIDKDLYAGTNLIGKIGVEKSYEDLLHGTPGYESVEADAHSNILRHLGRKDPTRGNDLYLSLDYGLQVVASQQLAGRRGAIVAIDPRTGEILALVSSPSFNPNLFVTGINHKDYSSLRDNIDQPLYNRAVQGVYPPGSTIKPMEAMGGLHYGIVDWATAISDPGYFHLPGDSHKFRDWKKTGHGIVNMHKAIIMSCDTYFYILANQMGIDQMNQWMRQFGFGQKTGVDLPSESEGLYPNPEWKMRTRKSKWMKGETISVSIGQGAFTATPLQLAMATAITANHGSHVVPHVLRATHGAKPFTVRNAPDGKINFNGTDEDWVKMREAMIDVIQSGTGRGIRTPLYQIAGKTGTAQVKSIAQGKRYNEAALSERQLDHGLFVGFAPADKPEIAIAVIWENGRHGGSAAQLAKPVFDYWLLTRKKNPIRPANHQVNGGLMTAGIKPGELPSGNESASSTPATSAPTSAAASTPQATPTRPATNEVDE

For `O=C(O)c1c(F)ccc2c1OB(O)[C@@H](NC(=O)[C@H](NC(=O)N1CCN(C3CCN(C(=O)Nc4cc(O)ccc4Cl)CC3)C1=O)c1cc(F)c(O)c(O)c1Cl)C2` (single isomer, unassigned) [Example 448], in assay [1], the IC50 was over 250 µM. Further, at A. baumannii PBP2, the EC50 (as a rule, the midpoint of the concentration-response curve) was under 10 µM. Moreover, the MIC in the assay on P. aeruginosa CDC-0054 and with A. baumannii CDC-0036 (setting [2]) was under 1 µg/mL each time.
As to `O=C(O)c1c(F)ccc2c1OB(O)[C@@H](NC(=O)[C@H](NC(=O)N1CCN(C3CCN(C(=O)Nc4ccc(F)c(O)c4)CC3)C1=O)c1cc(F)c(O)c(O)c1Cl)C2` (single isomer, unassigned) [Example 449], the IC50 in assay [1] is over 250 µM. For the same molecule, the EC50 at A. baumannii PBP2 was under 10 µM. Besides, the MIC in the assay with P. aeruginosa CDC-0054 and in the assay on A. baumannii CDC-0036 (setting [2]) was under 1 µg/mL each time.
Regarding `O=C(O)c1c(F)ccc2c1OB(O)[C@@H](NC(=O)[C@H](NC(=O)N1CCN(C3CCN(C(=O)Nc4cc(O)cc(F)c4)CC3)C1=O)c1cc(F)c(O)c(O)c1Cl)C2` (single isomer, unassigned) [Example 450], the IC50 in assay [1] is over 250 µM. Besides, at A. baumannii PBP2, the EC50 is under 10 µM. Moreover, the MIC with P. aeruginosa CDC-0054 and in the assay on A. baumannii CDC-0036 (setting [2]) was under 1 µg/mL in each case.
With `O=C(O)c1c(F)ccc2c1OB(O)[C@@H](NC(=O)[C@H](NC(=O)N1CCN(C3CCN(C(=O)Nc4c(F)ccc(O)c4F)CC3)C1=O)c1cc(F)c(O)c(O)c1Cl)C2` (single isomer, unassigned) [Example 454], the IC50 in assay [1] was over 250 µM. The molecule further registered a concentration for a half-maximal effect (EC50) at A. baumannii PBP2 of under 10 µM. Also, the MIC with P. aeruginosa CDC-0054 and in the assay on A. baumannii CDC-0036 (setting [2]) was under 1 µg/mL each time.
On to `O=C(O)c1cccc2c1OB(O)[C@@H](NC(=O)C(NC(=O)N1CCN(Cc3cc(F)c(O)c(O)c3Cl)C(=O)C1=O)c1ccc(P(=O)(O)O)cc1)C2` (stereo partly drawn) [Example 164, (3R)-3-(2-(4-(2-chloro-5-fluoro-3,4-dihydroxybenzyl)-2,3-dioxopiperazine-1-carboxamido)-2-(4-phosphonophenyl)acetamido)-2-hydroxy-3,4-dihydro-2H-benzo[e][1,2]oxaborinine-8-carboxylic acid], for which the IC50 in assay [1] was over 250 µM. This molecule also came in with an EC50 at A. baumannii PBP2 of under 10 µM. In addition, the MIC in the assay on P. aeruginosa CDC-0054 and in the assay on A. baumannii CDC-0036 (setting [2]) was under 1 µg/mL in each case.
On to `O=C(O)c1c(F)ccc2c1OB(O)[C@@H](NC(=O)[C@H](NC(=O)N1CCN(C3CCN(C(=O)c4ccc(F)c(O)c4Cl)CC3)C1=O)c1cc(F)c(O)c(O)c1Cl)C2` [Example 438, (R)-3-((R)-2-(3-(1-(2-chloro-4-fluoro-3-hydroxybenzoyl)piperidin-4-yl)-2-oxoimidazolidine-1-carboxamido)-2-(2-chloro-5-fluoro-3,4-dihydroxyphenyl)acetamido)-7-fluoro-2-hydroxy-3,4-dihydro-2H-benzo[e][1,2]oxaborinine-8-carboxylic acid], for which the EC50 at A. baumannii PBP2 is under 10 µM. Further, the MIC with P. aeruginosa CDC-0054 and in the assay with A. baumannii CDC-0036 (setting [2]) was under 1 µg/mL throughout.
For `O=C(O)c1c(F)ccc2c1OB(O)[C@@H](NC(=O)[C@H](NC(=O)N1CCN(C3CCN(C(=O)Nc4cccc(O)c4)CC3)C1=O)c1cc(F)c(O)c(O)c1Cl)C2` [Example 445, (R)-3-((R)-2-(2-chloro-5-fluoro-3,4-dihydroxyphenyl)-2-(3-(1-((3-hydroxyphenyl)carbamoyl)piperidin-4-yl)-2-oxoimidazolidine-1-carboxamido)acetamido)-7-fluoro-2-hydroxy-3,4-dihydro-2H-benzo[e][1,2]oxaborinine-8-carboxylic acid], on A. baumannii PBP2, the EC50 was under 10 µM. In addition, the MIC with P. aeruginosa CDC-0054 and in the assay on A. baumannii CDC-0036 (setting [2]) was under 1 µg/mL each time.
`O=C(O)c1c(F)ccc2c1OB(O)[C@@H](NC(=O)[C@H](NC(=O)N1CCN(C3CCN(C(=O)Nc4cccc(O)c4Cl)CC3)C1=O)c1cc(F)c(O)c(O)c1Cl)C2` [Example 447, (R)-3-((R)-2-(3-(1-((2-chloro-3-hydroxyphenyl)carbamoyl)piperidin-4-yl)-2-oxoimidazolidine-1-carboxamido)-2-(2-chloro-5-fluoro-3,4-dihydroxyphenyl)acetamido)-7-fluoro-2-hydroxy-3,4-dihydro-2H-benzo[e][1,2]oxaborinine-8-carboxylic acid]: the EC50 on A. baumannii PBP2 was under 10 µM. Further, the MIC with P. aeruginosa CDC-0054 and in the assay with A. baumannii CDC-0036 (setting [2]) was under 1 µg/mL each time.
`O=C(O)c1c(F)ccc2c1OB(O)[C@@H](NC(=O)C(NC(=O)N1CCN(C3CCN(C(=O)Nc4ccc(F)c(O)c4F)CC3)C1=O)c1cc(F)c(O)c(O)c1Cl)C2` (stereo partly drawn) [Example 452, (3R)-3-(2-(2-chloro-5-fluoro-3,4-dihydroxyphenyl)-2-(3-(1-((2,4-difluoro-3-hydroxyphenyl)carbamoyl)piperidin-4-yl)-2-oxoimidazolidine-1-carboxamido)acetamido)-7-fluoro-2-hydroxy-3,4-dihydro-2H-benzo[e][1,2]oxaborinine-8-carboxylic acid]: the IC50 in assay [1] is over 250 µM. This molecule returned an EC50 at A. baumannii PBP2 of under 10 µM. The values for the MIC with P. aeruginosa CDC-0054 and in the assay on A. baumannii CDC-0036 (setting [2]) were under 1 µg/mL and 2 to 4 µg/mL (≈ 2.47 to 4.95 µM), respectively.
On A. baumannii PBP2, `O=C(O)c1c(F)ccc2c1OB(O)[C@@H](NC(=O)[C@H](NC(=O)N1CCN(C3CCN(C(=O)Nc4cc(O)cc(O)c4)CC3)C1=O)c1cc(F)c(O)c(O)c1Cl)C2` [Example 456, (R)-3-((R)-2-(2-chloro-5-fluoro-3,4-dihydroxyphenyl)-2-(3-(1-((3,5-dihydroxyphenyl)carbamoyl)piperidin-4-yl)-2-oxoimidazolidine-1-carboxamido)acetamido)-7-fluoro-2-hydroxy-3,4-dihydro-2H-benzo[e][1,2]oxaborinine-8-carboxylic acid] showed an EC50 of under 10 µM. Further, the MIC in the assay on P. aeruginosa CDC-0054 and in the assay with A. baumannii CDC-0036 (setting [2]) was under 1 µg/mL each time.
In turn, `O=C(O)c1c(F)ccc2c1OB(O)[C@@H](NC(=O)[C@H](NC(=O)N1CCN(C3CCN(C(=O)c4cccnc4)CC3)C1=O)c1cc(F)c(O)c(O)c1Cl)C2` [Example 460, (R)-3-((R)-2-(2-chloro-5-fluoro-3,4-dihydroxyphenyl)-2-(3-(1-nicotinoylpiperidin-4-yl)-2-oxoimidazolidine-1-carboxamido)acetamido)-7-fluoro-2-hydroxy-3,4-dihydro-2H-benzo[e][1,2]oxaborinine-8-carboxylic acid] gave an EC50 on A. baumannii PBP2 of 10 to 50 µM. In addition, the MIC in the assay with P. aeruginosa CDC-0054 and with A. baumannii CDC-0036 (setting [2]) was under 1 µg/mL throughout.
At A. baumannii PBP2, `O=C(O)c1c(F)ccc2c1OB(O)[C@@H](NC(=O)[C@H](NC(=O)N1CCN(C3CCN(C(=O)c4ccncc4)CC3)C1=O)c1cc(F)c(O)c(O)c1Cl)C2` [Example 461, (R)-3-((R)-2-(2-chloro-5-fluoro-3,4-dihydroxyphenyl)-2-(3-(1-isonicotinoylpiperidin-4-yl)-2-oxoimidazolidine-1-carboxamido)acetamido)-7-fluoro-2-hydroxy-3,4-dihydro-2H-benzo[e][1,2]oxaborinine-8-carboxylic acid] gave an EC50 of 10 to 50 µM. For the same molecule, the MIC in the assay on P. aeruginosa CDC-0054 and with A. baumannii CDC-0036 (setting [2]) was under 1 µg/mL in each case.
`O=C(O)c1c(F)ccc2c1OB(O)[C@@H](NC(=O)C(NC(=O)N1CCN(C3CCN(S(=O)(=O)Cc4cccc(O)c4)CC3)C(=O)C1=O)c1cc(F)c(O)c(O)c1Cl)C2` (stereo partly drawn) [Example 485, (3R)-3-(2-(2-chloro-5-fluoro-3,4-dihydroxyphenyl)-2-(4-(1-((3-hydroxybenzyl)sulfonyl)piperidin-4-yl)-2,3-dioxopiperazine-1-carboxamido)acetamido)-7-fluoro-2-hydroxy-3,4-dihydro-2H-benzo[e][1,2]oxaborinine-8-carboxylic acid]: at A. baumannii PBP2, the EC50 is under 10 µM. In addition, the MIC in the assay with P. aeruginosa CDC-0054 and in the assay on A. baumannii CDC-0036 (setting [2]) was under 1 µg/mL in each case.
`O=C(O)c1c(F)ccc2c1OB(O)[C@@H](NC(=O)C(NC(=O)N1CCN(C3CCN(C(=O)Nc4ccc(F)c(O)c4F)CC3)C(=O)C1=O)c1cc(F)c(O)c(O)c1Cl)C2` (stereo partly drawn) [Example 486, (3R)-3-(2-(2-chloro-5-fluoro-3,4-dihydroxyphenyl)-2-(4-(1-((2,4-difluoro-3-hydroxyphenyl)carbamoyl)piperidin-4-yl)-2,3-dioxopiperazine-1-carboxamido)acetamido)-7-fluoro-2-hydroxy-3,4-dihydro-2H-benzo[e][1,2]oxaborinine-8-carboxylic acid] displayed an EC50 on A. baumannii PBP2 of under 10 µM. In addition, the MIC is under 1 µg/mL in the assay on P. aeruginosa CDC-0054 and under 1 µg/mL in the assay on A. baumannii CDC-0036 (CDC0036, read-out: Minimum inhibitory concentration (MIC), A. baumannii CDC-0036).
